{"source": "patent US20240417743A1", "about": "“METHODS FOR IMPROVING GENOME ENGINEERING AND REGENERATION IN PLANT” (KWS SAAT SE & Co. KGaA, priority 2018, published 2024)", "test_system": "maize WUS2 promoter", "test": "Maize WUS2 promoter tDT report construct co-bombardment", "format": "cell-based", "text": "Homeobox domain transcriptional factor WUSCHEL (WUS) plays an important role in establishing and maintaining of shoot meristem. To identify boost factors that promote endogenous WUS2 expression, the maize WUSCHEL 2 promoter report construct (pAMK-ZmWUS2-tDT-noT) (SEQ ID NO: 43; FIG. 13) was used to illustrate maize WUS2 promoter activity. The maize WUS2 promoter (pZmWUS2) drove expression of the tDT report gene in this report construct (FIG. 13). The WUS2 promoter report construct was co-bombarded with boost factors individually in maize immature embryos and leaf segments.\nFresh leaf segments of 1-2 cm in length were prepared from the in vitro-cultured maize A188 seedling of 10-14 days old, and placed on the Osmotic medium with abaxial side up for 4 hours. For co-bombardment, two plasmids (100 ng of ZmWUS2 promoter report (FIG. 13) and 100 ng of boost construct, e.g. TaRKD4 (FIG. 5)) were premixed and coated onto 100 μg of gold particles size 0.4 μm. Immature embryo preparation, bombardment, and post-bombardment culturing were carried out as described in Example 1 and Example 2. Red fluorescence showing tDT expression was monitored using a fluorescent microscope started at 16 hours after bombardment.", "key": {"[1]": {"conditions": "A188 leaf segments, after bombardment"}}}
{"substance": "wheat RKD4: wheat RKD4 boost gene, expression construct pABM-BdEF1-TaRKD4 (SEQ ID NO: 28)", "values": [{"measurement": "time at which tDT signal peaked", "setting": "[1]", "value": "around 44 hours"}, {"measurement": "time at which tDT signal was detected", "setting": "[1]", "value": "around 36 hours"}, {"measurement": "activation of maize WUS2 genes", "setting": "immature embryos and leaf segments", "value": "strongly activate"}, {"measurement": "tDT red fluorescent signals", "setting": "immature embryos, 44 hours after bombardment, compared to WUS promoter reporter only", "value": "extremely strong red fluorescent signals"}]}
